target: T1, HCV Protease (HCV NS3-4A) (Hepatitis C virus genotype 1a, UniProt P27958); assay: HCV Protease (HCV NS3-4A) anti-activity assay, fluorescence quenching (FRET); format: biochemical
T1 construct: HCV Protease: HCV NS3-4A, self-prepared; made in house
Description: Method of HCV Protease (HCV NS3-4A) Anti-Activity Assay:
HCV Protease (HCV NS3/4A) anti-activity was measured by an inter fluorescence quenching system. EDANS group and DABCYL group were bonded on each side of a peptide. When protein cleavage started, fluorescence quenching of EDANS by DABCYL was detected. We used a high throughput screening model for HCV NS3/4A protease inhibitors, the tested drugs were prepared with 5 different concentrations, positive control and negative control were set in the same time. In the optimized reaction system, fluorescence were determined at ex=355, em=520 by a Polarstar fluorescence detector. Calculate the inhibition rate of each concentration; calculate the half maximal inhibitory concentration (IC50) with the method of Reed-Muench.
Materials: HCV Protease: HCV NS3-4A, self-prepared, stored at −70. HCV Protease substrate (FRET-S): Ac-Asp-Glu-Asp(EDANS)-Glu-Glu-Abu-ψ-[COO]-Ala-Ser-Lys-(DABCYL)-NH2, supplied by AnaSpec USA, prepared of 100 μM by DMSO, distributed and stored at −20 without light. Buffer solution: 30 mM NaCl, 5 mM CaCl2, 10 mM DTT, 50 mM Tris (pH7.8).
Instrument: fluorescence detector Polarstar from Germany Company BMG
Preparation and operation: preparation of 10 mg/mL by DMSO, dilute of 10000, 2000, 400, 80, 16 ng/mL as tested concentrations by buffer solutions, adding 20 μL into each well, the total reaction system is 200 μL, to make the final concentrations of 1000, 200, 40, 8, 1.6 ng/mL. Add 140 μL buffer solution, 20 μL drug solution, 20 μL HCV protease, and 20 μL FRET-S substrate with final concentration of 0.25 μM into 96-well fluorescence microtiterplate, the reaction started at 37, set control wells of protease-substrate reaction and of isolate substrate and isolate protease, fluorescence signals were detected by fluorescence detector (ex=355,em=520). Calculate the inhibition rates of samples for each concentration by comparison of fluorescence value of sample in each well and the fluorescence control value of enzyme, calculate the half maximal inhibitory concentration (IC50) of samples to HCV protease with the method of Reed-Muench.
THF and Et2O were distilled from sodium metal and benzophenone. DCM, pentane and hexane were distilled form calcium hydride. Special raw materials and intermediates in the invention were supplied by Zannan SciTech Co. for ordered processing, Ltd. in Shanghai, others reagents were purchased from Shanghai reagent company, Aldrich, Acros etc. If intermediates or products of synthesis were not enough for the next step of reaction, the synthesis shall be repeated until it is sufficient. The HCV protease (HCV NS3-4A) inhibitory activity assays in the present invention were performed by relevant cooperation service units of China Institutes for Biological Science in Beijing.

T1 sequence (P27958 1658-1711): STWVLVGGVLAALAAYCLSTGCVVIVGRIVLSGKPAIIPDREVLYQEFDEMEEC
T1 sequence (P27958 1027-1657): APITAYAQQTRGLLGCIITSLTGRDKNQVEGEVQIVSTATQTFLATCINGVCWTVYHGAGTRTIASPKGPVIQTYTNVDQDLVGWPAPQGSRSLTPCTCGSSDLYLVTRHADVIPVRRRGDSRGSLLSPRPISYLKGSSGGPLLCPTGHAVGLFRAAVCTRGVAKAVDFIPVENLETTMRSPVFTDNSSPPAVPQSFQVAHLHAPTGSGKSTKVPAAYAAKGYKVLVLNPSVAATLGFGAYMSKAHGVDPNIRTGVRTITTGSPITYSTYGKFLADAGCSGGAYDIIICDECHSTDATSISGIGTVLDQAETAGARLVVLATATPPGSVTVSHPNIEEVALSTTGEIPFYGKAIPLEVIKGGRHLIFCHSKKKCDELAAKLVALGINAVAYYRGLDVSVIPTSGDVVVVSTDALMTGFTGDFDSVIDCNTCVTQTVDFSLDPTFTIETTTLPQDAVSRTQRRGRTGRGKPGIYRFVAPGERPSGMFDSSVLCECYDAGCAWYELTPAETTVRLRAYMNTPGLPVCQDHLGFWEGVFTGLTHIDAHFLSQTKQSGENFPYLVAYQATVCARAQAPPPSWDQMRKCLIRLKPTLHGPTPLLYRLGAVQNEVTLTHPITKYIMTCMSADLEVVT

SMILES	IC50
CCC1CC1(NC(=O)C1CC2CN1C(=O)C(C(C)(C)C)NC(=O)OCC(C)(C)CCCCCOC(=O)c1ccc3c(c1)CN(C3)C(=O)O2)C(=O)NS(=O)(=O)C1CC1 (stereo not shown) [Compound 15bs]	51 to 300 nM
CC[C@H]1C[C@@]1(NC(=O)C1C[C@@H]2CN1C(=O)[C@H](C(C)(C)C)NC(=O)OCC/C=C/COc1cccc3c1CN(C3)C(=O)O2)C(=O)NS(=O)(=O)C1CC1 (stereo partly shown) [Compound 15ae]	0.1 to 5 nM
CCC1CC1(NC(=O)C1CC2CN1C(=O)C(C(C)(C)C)NC(=O)OCCCC=CCOc1ccc3c(c1)CN(C3)C(=O)O2)C(=O)NS(=O)(=O)C1CC1 (stereo not shown) [Compound 15bk]	5.1 to 50 nM
C=C[C@H]1C[C@@]1(NC(=O)C1C[C@@H]2CN1C(=O)[C@H](C(C)(C)C)NC(=O)OCCC/C=C/COc1c(OC)ccc3c1CN(C3)C(=O)O2)C(=O)NS(=O)(=O)C1CC1 (stereo partly shown) [Compound 15k]	0.1 to 5 nM
CC[C@H]1C[C@@]1(NC(=O)C1C[C@@H]2CN1C(=O)[C@H](C(C)(C)C)NC(=O)OCC(C)(C)CCCCOc1ccc(Cl)c3c1CN(C3)C(=O)O2)C(=O)NS(=O)(=O)C1CC1 (stereo partly shown) [Compound 15ax]	0.1 to 5 nM
CC[C@H]1C[C@@]1(NC(=O)C1C[C@@H]2CN1C(=O)[C@H](C(C)(C)C)NC(=O)OCC(C)(C)CC/C=C/COc1cccc3c1CN(C3)C(=O)O2)C(=O)NS(=O)(=O)C1CC1 (stereo partly shown) [Compound 15r]	0.1 to 5 nM
CC[C@H]1C[C@@]1(NC(=O)C1C[C@@H]2CN1C(=O)[C@H](C(C)(C)C)NC(=O)OCCCCCCCCCOc1cccc3c1CN(C3)C(=O)O2)C(=O)NS(=O)(=O)C1CC1 (stereo partly shown) [Compound 15z]	5.1 to 50 nM
CC[C@H]1C[C@@]1(NC(=O)C1C[C@@H]2CN1C(=O)[C@H](C(C)(C)C)NC(=O)OCC1(CC/C=C/COc3cccc4c3CN(C4)C(=O)O2)CC1)C(=O)NS(=O)(=O)C1CC1 (stereo partly shown) [Compound 15b]	0.1 to 5 nM
C=C[C@H]1C[C@@]1(NC(=O)C1C[C@@H]2CN1C(=O)[C@H](C(C)(C)C)NC(=O)OCCCC/C=C/COc1ccc3c(c1)CN(C3)C(=O)O2)C(=O)NS(=O)(=O)C1CC1 (stereo partly shown) [Compound 15bh]	0.1 to 5 nM
CC[C@H]1C[C@@]1(NC(=O)C1C[C@@H]2CN1C(=O)[C@H](C(C)(C)C)NC(=O)OCCC/C=C/CSc1cccc3c1CN(C3)C(=O)O2)C(=O)NS(=O)(=O)C1CC1 (stereo partly shown) [Compound 15cc]	0.1 to 5 nM
CC[C@H]1C[C@@]1(NC(=O)C1C[C@@H]2CN1C(=O)[C@H](C(C)(C)C)NC(=O)OCCCCCCOCc1cccc3c1CN(C3)C(=O)O2)C(=O)NS(=O)(=O)C1CC1 (stereo partly shown) [Compound 15aw]	5.1 to 50 nM
CC[C@H]1C[C@@]1(NC(=O)C1C[C@@H]2CN1C(=O)[C@H](C(C)(C)C)NC(=O)OCC1(C/C=C/CSc3cccc4c3CN(C4)C(=O)O2)CC1)C(=O)NS(=O)(=O)C1CC1 (stereo partly shown) [Compound 15ca]	0.1 to 5 nM
CC[C@H]1C[C@@]1(NC(=O)C1C[C@@H]2CN1C(=O)[C@H](C(C)(C)C)NC(=O)OCCCC/C=C/COc1c(OC)ccc3c1CN(C3)C(=O)O2)C(=O)NS(=O)(=O)C1CC1 (stereo partly shown) [Compound 15q]	5.1 to 50 nM

— US8962810B2, “Macrocyclic heterocyclic compound for inhibiting hepatitis C virus and preparation and use thereof” (AB Pharma Ltd., priority 2011, dated 2015)
